In patent US11319298B2 (Merck Sharp & Dohme Corp., priority 2016, dated 2022) one finds EC50 data, which are given here for 34 molecules.

For this experiment, the target named is T1, human M4 muscarinic acetylcholine receptor (Homo sapiens, UniProt P08173).
T1 construct: expressed in transfected cells; host or cells: CHO-K1
T1 sequence (P08173 1-479): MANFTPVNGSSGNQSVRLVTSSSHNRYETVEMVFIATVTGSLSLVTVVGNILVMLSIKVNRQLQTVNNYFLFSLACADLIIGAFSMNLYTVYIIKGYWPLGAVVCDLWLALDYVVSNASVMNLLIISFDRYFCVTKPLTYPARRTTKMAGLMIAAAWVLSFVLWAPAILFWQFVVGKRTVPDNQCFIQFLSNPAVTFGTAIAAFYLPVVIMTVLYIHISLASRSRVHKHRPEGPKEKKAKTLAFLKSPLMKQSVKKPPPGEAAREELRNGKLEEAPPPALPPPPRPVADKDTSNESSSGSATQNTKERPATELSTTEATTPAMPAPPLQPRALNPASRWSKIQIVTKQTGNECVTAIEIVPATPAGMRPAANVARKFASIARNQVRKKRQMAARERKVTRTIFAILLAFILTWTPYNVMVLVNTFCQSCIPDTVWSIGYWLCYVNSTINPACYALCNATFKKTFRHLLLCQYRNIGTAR
Put plainly: human FLIPR-based M4 PAM assay, CHO-K1 cells stably transfected with human M4 receptor and chimeric G-protein Gαqi5. Format: cell-based. Conditions: inflection point (IP) of dose response curve; acetylcholine added at 20% of maximum response; CHO-K1 human M4/Gαqi5, FLIPR Tetra. The method, boiled down:
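CHO-K1 cells were loaded with calcium dye at 37 °C for ~1 h. Fluorescence (ex 470–495/em 515–575 nm) was read for 4 min after test compound at increasing concentrations, then 3.5 min after acetylcholine at an EC20; sometimes a third addition at EC70 followed. The value is the inflection point of a 4-parameter logistic fit.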
One may read the EC50 as the midpoint of the concentration-response curve. A low value points to a more potent agent. On to `Cc1c(Cl)nc(CO)nc1N1CCC(Oc2ccc3c(c2)CCCN3)CC1` [Example 93, (4-chloro-5-methyl-6-(4-((1,2,3,4-tetrahydroquinolin-6-yl)oxy)piperidin-1-yl)pyrimidin-2-yl)methanol], for which the EC50 is 33 nM. This lies in the double-digit nanomolar range.

With `Cc1c(Cl)nc(CO)nc1N1CCC(Oc2ccc3c(c2)COC3)CC1` [Example 94, (4-chloro-6-(4-((1,3-dihydroisobenzofuran-5-yl)oxy)piperidin-1-yl)-5-methylpyrimidin-2-yl)methanol], the response was half-maximal at 34 nM (EC50). The EC50 values of the last two molecules are within 1.5-fold of each other.

The molecule `COc1ccc(OC2CCN(c3nc(SC)ncc3C#N)CC2)cc1` [Example 95, 4-(4-(4-methoxyphenoxy)piperidin-1-yl)-2-(methylthio)pyrimidine-5-carbonitrile] displayed an EC50 of 803 nM.

`CSc1ncc(C#N)c(N2CCC(Oc3cccnc3)CC2)n1` [Example 95A, 2-(methylthio)-4-(4-(pyridin-3-yloxy)piperidin-1-yl)pyrimidine-5-carbonitrile] had an EC50 of 4940 nM. Against the preceding molecule, the EC50 is about 6.2-fold higher.

The molecule `Cc1c(Cl)nc(C2CC2)nc1N1CCC(Oc2cccnc2)CC1` [Example 95B, 4-chloro-2-cyclopropyl-5-methyl-6-(4-(pyridin-3-yloxy)piperidin-1-yl)pyrimidine] yielded an EC50 of 435 nM.

As to `COc1ccc(OC2CCN(c3nc(C4CC4)nc(Cl)c3C)CC2)cc1` [Example 95C, 4-chloro-2-cyclopropyl-6-(4-(4-methoxyphenoxy)piperidin-1-yl)-5-methylpyrimidine], a half-maximal response (EC50) required 846 nM. Against the preceding molecule, the EC50 is about 1.9-fold higher.

For the molecule `COc1ccc(OC2CCN(c3ncncc3Br)CC2)cn1` [Example 95D, 5-bromo-4-(4-((6-methoxypyridin-3-yl)oxy)piperidin-1-yl)pyrimidine], the midpoint of the response, the EC50, lay at 928 nM.

For `Cc1c(Cl)nc(CO)nc1N1CCC(Oc2ccc3c(c2)OCCN3)CC1` [Example 96, (4-Chloro-6-(4-((3,4-dihydro-2H-benzo[b][1,4]oxazin-7-yl)oxy)piperidin-1-yl)-5-methylpyrimidin-2-yl)methanol], the 50% effective concentration (EC50) worked out at 37 nM.

`Cc1c(Cl)nc(CO)nc1N1CCC(Oc2ccc3[nH]ccc3c2)CC1` [Example 97, (4-(4-((1H-indol-5-yl)oxy)piperidin-1-yl)-6-chloro-5-methylpyrimidin-2-yl)methanol] showed an EC50 of 68 nM. This EC50 is about 1.8-fold higher than that of the molecule before.

In the case of `Cc1c(Cl)nc(CO)nc1N1CCC(Oc2ccc3c(c2)C(=O)NC3)CC1` [Example 98, 6-((1-(6-chloro-2-(hydroxymethyl)-5-methylpyrimidin-4-yl)piperidin-4-yl)oxy)isoindolin-1-one], the concentration giving a half-maximal response (EC50) stood at 184 nM.

`Cc1ncc(C)c(N2CCC(Oc3ccc4c(c3)C(=O)OC4)CC2)n1` [Example 99, 6-((1-(2,5-Dimethylpyrimidin-4-yl)piperidin-4-yl)oxy)isobenzofuran-1(31-1)-one] came in with an EC50 of 319 nM.

For `Cc1ncc(C)c(N2CCC(Oc3ccc4c(c3)C(=O)NC4)CC2)n1` [Example 100, 6-((1-(2,5-dimethylpyrimidin-4-yl)piperidin-4-yl)oxy)isoindolin-1-one], the EC50 came out at 674 nM.

With `COc1ccc(OC2CCN(c3nnc(C(=O)NCc4ccncc4)cc3C)CC2)cc1` [Example 101, 6-(4-(4-Methoxyphenoxy)piperidin-1-yl)-5-methyl-N-(pyridin-4-ylmethyl)pyridazine-3-carboxamide], the EC50 worked out at 129 nM.

Regarding `COC(=O)c1cc(C)c(N2CCC(Oc3ccc(OC)nc3)CC2)nc1F` [Example 102, Methyl 2-fluoro-6-(4-((6-methoxypyridin-3-yl)oxy)piperidin-1-yl)-5-methylnicotinate], the EC50 amounted to 378 nM.

In turn, `Cc1nc(C)c(C)c(N2CCC(Oc3cccc(C#N)c3)CC2)n1` [Example 103, 3-((1-(2,5,6-Trimethylpyrimidin-4-yl)piperidin-4-yl)oxy)benzonitrile] showed a concentration giving a half-maximal response (EC50) of 61 nM.

As for `COc1ccc(OC2CCN(c3nc(C)nc(C)c3C)CC2)cn1` [Example 104, 4-(4-((6-methoxypyridin-3-yl)oxy)piperidin-1-yl)-2,5,6,-trimethylpyrimidine], a half-maximal response (EC50) required 91 nM.

Molecule `CCOC(=O)c1cc(C)c(N2CCC(Oc3cccc(C#N)c3)CC2)nn1` [Example 105, ethyl 6-(4-(3-cyanophenoxy)piperidin-1-yl)-5-methylpyridazine-3-carboxylate] yielded an EC50 of 58 nM.

As to `CCOC(=O)c1cc(C)c(N2CCC(Oc3ccc(OC)nc3)CC2)nn1` [Example 105A, ethyl 6-(4-((6-methoxypridin-3-yl)oxy)piperidin-1-yl)-5-methylpyridazine-3-carboxylate], it took 170 nM to reach a half-maximal effect (EC50). This EC50 lies about 2.9-fold higher than the previous one.

The molecule `Cc1cc(C(=O)NCc2ccncc2)nnc1N1CCC(Oc2cccc(C#N)c2)CC1` [Example 106, 6-(4-(3-Cyanophenoxy)piperidin-1-yl)-5-methyl-N-(pyridin-4-ylmethyl)pyridazine-3-carboxamide] came in with an EC50 of 33 nM.

The molecule `COc1ccc(OC2CCN(c3nnc(C(=O)OCc4ccncc4)cc3C)CC2)cn1` [Example 106A, Pyridin-4-ylmethyl 6-(4-((6-methoxypyridin-3-yl)oxy)piperidin-1-yl)-5-methylpyridazine-3-carboxylate] displayed an EC50 of 85 nM.

On to `Cc1cc(C(=O)NCc2ccncc2)nnc1N1CCC(Oc2ccc3c(c2)OCCO3)CC1` [Example 108, 6-[4-(2,3-dihydro-1,4-benzodioxin-6-yloxy)piperidin-1-yl]-5-methyl-N-(pyridin-4-ylmethyl)pyridazine-3-carboxamide], for which the response was half-maximal at 18 nM (EC50).

In turn, `COc1ccc(OC2CCN(c3nnc(C(=O)NCc4ccncc4)cc3C)CC2)cn1` [Example 109, 6-{4-[(6-methoxypyridin-3-yl)oxy]piperidin-1-yl}-5-methyl-N-(pyridin-4-ylmethyl)pyridazine-3-carboxamide] had an EC50 of 34 nM.

Turning to `Cc1cc(C(=O)NCc2ccncc2)nnc1N1CCC(Oc2ccc3[nH]ccc3c2)CC1` [Example 110, 6-[4-(1H-indol-5-yloxy)piperidin-1-yl]-5-methyl-N-(pyridin-4-ylmethyl)pyridazine-3-carboxamide], it took 35 nM to reach a half-maximal effect (EC50).

With `Cc1cc(C(=O)NCc2ccncc2)nnc1N1CCC(Oc2ccc3[nH]ncc3c2)CC1` [Example 111, 6-[4-(1H-indazol-5-yloxy)piperidin-1-yl]-5-methyl-N-(pyridin-4-ylmethyl)pyridazine-3-carboxamide], the EC50 turned out to be 40 nM.

As to `COc1ccc(OC2CCN(c3nc(C#N)c(C(N)=O)cc3C)CC2)cn1` [Example 112, 2-cyano-6-{4-[(6-methoxpyridin-3-yl)oxy]piperidin-1-yl}-5-methylpyridine-3-carboxamide], the EC50 amounted to 41 nM.

As for `COc1ccc(OC2CCN(c3nnc(C(=O)NCc4nncs4)cc3C)CC2)cn1` [Example 113, 6-{4-[(6-methoxypyridn-3-yl)oxy]piperidin-1-yl}-5-methyl-N-(1,3,4-thiadiazol-2-ylmethyl)pyridazine-3-carboxamide], the EC50 worked out at 44 nM. This EC50 and that of the molecule before are within 1.5-fold of each other.

For `Cc1cc(C(=O)NCc2ccncc2)nnc1N1CCC(Oc2ccccc2)CC1` [Example 114, 5-methyl-6-(4-phenoxypiperidin-1-yl)-N-(pyridin-4-ylmethyl)pyridazine-3-carboxamide], the EC50 turned out to be 53 nM. The EC50 values of the last two molecules are within 1.5-fold of each other.

Take `Cc1cc(C(=O)NCc2ccncc2)nnc1N1CC[C@@H](Oc2cccc(C#N)c2)[C@@H](F)C1` [Example 115, 6-[(3S,4R)-4-(3-cyanophenoxy)-3-fluoropiperidin-1-yl]-5-methyl-N-(pyridin-4-ylmethyl)pyridazine-3-carboxamide]: the EC50 turned out to be 61 nM. The EC50 values of the last two molecules are within 1.5-fold of each other.

`COc1ccc(OC2CCN(c3nnc(C(=O)NCc4ccncc4)cc3C)CC2)cn1` [Example 116, 6-{4-[(6-methoxypyridin-3-yl)oxy]piperidin-1-yl}-5-methyl-N-(pyridin-4-ylmethyl)pyridazine-3-carboxamide] gave an EC50 of 79 nM.

Consider `Cc1cc(C(=O)NC2C3CC2C3)nnc1N1CCC(Oc2cccc(C#N)c2)CC1` (stereo not shown) [Example 117, N-bicyclo[1.1.1]pent-2-yl-6-[4-(3-cyanophenoxy)piperidin-1-yl]-5-methylpyridazine-3-carboxamide], for which the EC50 came to 85 nM. The EC50 values of the last two molecules are within 1.5-fold of each other.

Molecule `COc1ccc(OC2CCN(c3nnc(C(=O)NCc4cnn[nH]4)cc3C)CC2)cn1` [Example 118, 6-{4-[(6-methoxypyridin-3-yl)oxy]piperidin-1-yl}-5-methyl-N-(1H-1,2,3-triazol-5-ylmethyl)pyridazine-3-carboxamide] gave an EC50 of 86 nM. This EC50 and that of the molecule before are within 1.5-fold of each other.

On to `COc1ccc(OC2CCN(c3nnc(C(=O)NCc4ccn[nH]4)cc3C)CC2)cn1` [Example 119, 6-{4-[(6-methoxypyridin-3-yl)oxy]piperidin-1-yl}-5-methyl-N-(1H-pyrazol-5-ylmethyl)pyridazine-3-carboxamide], for which the response was half-maximal at 95 nM (EC50).

`COc1ccc(OC2CCN(c3nnc(C(=O)Nc4ccncc4)cc3C)CC2)cn1` [Example 120, 6-{4-[(6-methoxypyridin-3-yl)oxy]piperidin-1-yl}-5-methyl-N-pyridin-4-ylpyridazine-3-carboxamide]: a half-maximal response (EC50) required 96 nM. The EC50 values of the last two molecules are within 1.5-fold of each other.

As for `COc1ccc(OC2CCN(c3nnc(C(=O)NCc4ccncc4C)cc3C)CC2)cn1` [Example 121, 6-{4-[(6-methoxypyridin-3-yl)oxy]piperidin-1-yl}-5-methyl-N-[(3-methylpyridin-4-yl)methyl]pyridazine-3-carboxamide], the response was half-maximal at 99 nM (EC50).
